Non-standard residues stand in square brackets, D forms with d. Residues, ends and D or L forms follow the SMILES beside them. Nle = CCCC[C@H](N)C(=O)O
System: RelB
Assay: RelB, IKKα, NIK and RelA/p65 levels by western blotting in CSE-treated Ramos B-cells
Format: cell-based, human
Conditions: B-cells pretreated with ALLN 25 μM for 20 min, then CSE 0.5% and 1.0% for 1 h; whole cell lysates, immunoblotting
Protocol: MonoMac6-, Ramos B- and WEHI-231-cells were seeded at a density of less than 1×10^6 cells/well (total final volume=2 ml), grown to ˜80-90% confluency in six-well plates containing RPMI 1640 medium with 10% FBS, washed in Ca2+- and Mg2+-free PBS, and then exposed to various treatments in media containing 1% serum. All treatments were performed in duplicate. The cells were treated with CSE (0.5, 1.0 and 5%) for 1 h at 37° C. with 7.5% CO2. At the end of treatment, the cells were washed with cold, sterile Ca2+- and Mg2+-free PBS and were lysed in RIPA buffer as whole lysate (western blotting), and the lysates stored at −80° C. […]
Lung tissue homogenate samples (cytoplasmic and nuclear proteins) were separated on a 7.5%-12% SDS-PAGE. […] The next day, membranes were washed and incubated for 1 h at room temperature with the appropriate secondary antibody linked to horseradish peroxidase (Dako, Santa Barbara, Calif.), bound complexes were detected with the use of the enhanced chemiluminescence method (Jackson Immunology Research, West Grove, Pa.).

SMILES: CCCC[C@@H](C=O)NC(=O)[C@H](CC(C)C)NC(=O)[C@H](CC(C)C)NC(C)=O [ALLN] (Ac-Leu-Leu-[Nle]-aldehyde)
- degradation of RelB in response to CSE: prevented the degradation of RelB

Source: patent US20120183524A1, “MOLECULAR TARGETS FOR TREATMENT OF INFLAMMATION” (University Of Rochester, priority 2007, published 2012)
